Data published in patent US7655253B2, “Navel orangeworm pheromone composition” (Bedoukian Research, Inc., priority 2004, dated 2010).

Assays:
[1] = system: major pheromone-binding protein (AtraPBP); experiment: Binding assays with recombinant olfactory proteins; parameters: species or system navel orangeworm, A. transitella; conditions: preliminary screening of ligands
Description: Synthetic pheromone compositions can be conveniently tested in the assays described below. For example, the synthetic pheromone compositions of the present invention can be tested.to determine affinity for a pheromone-binding protein (AtraPBP) present in the navel orangeworm. Alternatively, the compositions can be tested for the ability to stimulate the olfactory receptor neurons (ORNs) in the insect's sensilla trichodea producing a response that indicates the presence or absence of a pheromone. In a typical embodiment, the compositions stimulate an electroantennogram response from an insect pest antenna, as described below.
Results. A comprehensive approach was taken in studying chemical communication in the navel orangeworm, A. transitella. Pheromone- and odorant-binding proteins were isolated, cloned, and expressed.

[2] = system: male moth antennae (navel orangeworm); experiment: GC-EAD using male navel orangeworm antennae as sensing element; parameters: species or system Amyelois transitella; conditions: for EAD activity of natural constituent: peaks in female pheromone gland extract or its fractions; for EAD activity of synthetic or authentic compound: synthetic standard
Experimental: General. Gas chromatography-mass spectrometry (GC-MS), described in Examples 1-6, was obtained with a 5973 Network Mass Selective Detector linked to a 6890 Network GC System (Agilent Technologies, Palo Alto, Calif.) operated either in the electron impact (EI) or chemical ionization (CI) mode. Chromatographic resolution was done on an HP-5MS column (30 m×0.25 mm; 0.25 μm; Agilent) that was operated at 70° C. for 1 min, increased to 250° C. at a rate of 10° C./min and held at this temperature for 10 min. Vapor phase infrared spectroscopy was carried out on a Win GC/IR Pro (Varian Inc., formerly Digilab, Randolph, Mass.) with a GC/IR interface and a Scimitar FTS 2000 linked to a 6890 Network GC System (Agilent). Separation was done on a HP-5 column (30 m×0.32 mm; 0.25 μm; Agilent) operated at 100° C. for 1 min, increased to 250° C. at a rate of 20° C./min and held at this temperature for 5 min; the transfer line and light pipe were operated at 250° C. Gas chromatography with electroantennographic detection (GC-EAD) was done with two different systems: HP 5890 and HP 6890 (Agilent) both having Syntech's GC-EAD transfer lines and temperature control units (Hilversum, The Netherlands). In both systems, the effluent from the capillary column was split into EAD and flame ionization detector (FID) in 3:1 ratios. Male antennae were placed in EAG probes (Syntech) and held in place with Spectra 360 electrode gel (Parker Laboratories, Orange, N.J.). These probes were connected to AM-01 amplifiers (Syntech). The analog signals were fed into A/D 35900E interfaces (Agilent) and acquired simultaneously with FID signal on an Agilent Chemstation. Chromatographic separations were done either with HP-5MS column operated as in GC-MS or with HP-INNOWAX column (30 m×0.32 mm; 0.25 μm; Agilent) operated at 70° C. for 1 min, increased to 250° C. at a rate of 10° C./min and held at this temperature for 5 min.
Gas chromatography coupled with an electroantennographic detector (GC-EAD) using male moth antennae as the sensing element was used to determine the active constituents in these SSR-active fractions (3% and hexane). […] The peaks were numbered in the order of their retention times (tR) in a non-polar column (1: tR, 17.30 min; 2: 18.44 min; 3: 18.96 min; 4: 19.08 min; 5: 20.9 min; 6: 23.8 min). The retention times of these EAD-active peaks in a polar column (HP-INNOWAX) were: 16.59, 17.37, 18.32, and 18.72 min (3% fraction) and 18.52 and 20.22 min (hexane fraction).
Pheromone glands were individually dissected out of >2,000 virgin female NOW, and the glands were extracted in −250 microliters of pentane in composite batches of −250-300 glands per extract. The extracts were screened by GC-EAD analysis to locate the compounds which elicited responses from male antennae (i.e., potential pheromone compounds). The extracts were then concentrated to ˜10-20 microliters, and aliquots were analyzed on several GC columns with different polarity, by coupled GC-mass spectrometry, and by coupled GC-Fourier transform infrared spectrometry. A parallel set of studies was conducted with composite pheromone gland extracts prepared from Pyralis females. A subset of the extracts were also combined and fractionated by liquid chromatography, to provide samples for wind tunnel tests.

[3] = system: olfactory receptor neurons (ORN) in sensilla trichodea of male moth antennae; experiment: Single sensillum recordings (SSR) from sensilla trichodea; parameters: species or system Amyelois transitella
Description: Single sensillum recordings (SSR). Male moths were immobilized with dental wax on the recording stage of a single sensillum recording unit (Syntech, INR-02), the tip of the sensilla were cut (Kaissling, K. E. Single unit and electroantennogram recordings in insect olfactory organs, In: Spielman A. I., Brand J. G. (ed) Experimental Cell Biology of Taste and Olfaction: Current Techniques and Protocols, CRC Press, Boca Raton, pp.361-386 (1995)) and placed under a stereomicroscope (SZX12,Olympus, Tokyo, Japan). The indifferent (ground) electrode was a thin tungsten electrode inserted into the head. The recording glass electrode was slipped over the cut tip of the sensilla with a Piezo Manipulator (PM-10, World Precision Instruments, Sarasota, Fla.) while the signal was monitored with a Tektronix oscilloscope (TDS-2014). The pre-amplified signal was acquired with an acquisition system (IDAC-USB, Syntech) and SSR software (Autospike 2000, Syntech). The antennal preparation was continuously flushed with clean air at 0.5 m/s. Each stimulus was applied to a filter paper, dried at least 10 min, and placed within a glass cartridge (7 mm i.d.; 5 cm long). The cartridge opening was placed 1 cm in front of the antennae. The stimulus air was delivered by a stimulus controller (CD-02/E, Syntech).

navel orangeworm = experiment: Field trap tests, UC Davis, navel orangeworm captures; assay type: in vivo, Amyelois transitella; conditions: 0.5 mg lure, 3-wk period
Experimental: (§1) Experimental. Tests were conducted in almond and walnut plot fields in the UC Davis campus. Pheromone samples (0.5 mg) were formulated in rubber septa or in 12 mm diameter, 3 mm thick discs (made of ES fiber, Chisso Co. Ltd, Tokyo, Japan) and loaded into Pherocon 1C traps (Trece Inc., Salinas, Calif.). Three or five 1 to 3-day old virgin females were placed in fiberglass screen cages (Curtis, C. E. and Clark, J. D., J Econ Entomol 77:1057-1061 (1984) Curtis et al., J Econ Entomol 78:1425-1430 (1985)). Baited and control traps were placed at ca. 1.8 m height in randomized blocks with the intertrap distance of ca. 10 m. Capture data were transformed to log (x+0.5) and analyzed by ANOVA. […] Means of captures are untransformed, and error bars show one standard error (SE).

NOW males = experiment: Wind tunnel bioassays of male NOW flight responses; assay type: in vivo, Amyelois transitella
Experimental: Flight responses of male NOW to different blends and doses of synthesized pheromone components were tested in the ARS wind tunnel. Males were 2-3 days old and were used during the last two hours of shotophase (dark cycle). The wind tunnel room was maintained at 23-26° C. with >35% relative humidity. NOW males were placed in individual aluminum-screen cages during their 1st or 2nd photophase and then held in an incubator until one hour prior to testing, when they were transferred from their dark incubator to the wind tunnel. […] After conditioning to ambient conditions in the wind tunnel for one hour, males were assayed individually to test compounds formulated on 1cm dia. filter paper disks. Information recorded included the number of males per trial that reached the pheromone source, the time to reach the pheromone source, and observations of the flight behavior (e.g., relatively straight flight; looping flight; veering out of the pheromone plume, etc.)
Subsequent wind tunnel tests were evaluated on quantitative as well as qualitative responses of NOW males to test formulations. All treatments were applied to 1 cm filter paper disks in at least 25 ul of hexane, to fully “wet” the paper surface, and at least 5 males were tested individually to each pheromone blend.

meal moth = experiment: Field trap tests, UC Davis, meal moth captures; assay type: in vivo, Pyralis farinalis; conditions: for catches of meal moth in traps baited with virgin female navel orangeworm plus added compound: synthetic sample 0.5 mg per device added
Experimental: as §1

[4] = system: antennae of male meal moth; experiment: GC-EAD using male meal moth antennae; parameters: species or system Pyralis farinalis
Experimental: General. Gas chromatography-mass spectrometry (GC-MS), described in Examples 1-6, was obtained with a 5973 Network Mass Selective Detector linked to a 6890 Network GC System (Agilent Technologies, Palo Alto, Calif.) operated either in the electron impact (EI) or chemical ionization (CI) mode. Chromatographic resolution was done on an HP-5MS column (30 m×0.25 mm; 0.25 μm; Agilent) that was operated at 70° C. for 1 min, increased to 250° C. at a rate of 10° C./min and held at this temperature for 10 min. Vapor phase infrared spectroscopy was carried out on a Win GC/IR Pro (Varian Inc., formerly Digilab, Randolph, Mass.) with a GC/IR interface and a Scimitar FTS 2000 linked to a 6890 Network GC System (Agilent). Separation was done on a HP-5 column (30 m×0.32 mm; 0.25 μm; Agilent) operated at 100° C. for 1 min, increased to 250° C. at a rate of 20° C./min and held at this temperature for 5 min; the transfer line and light pipe were operated at 250° C. […]
Pheromone glands were individually dissected out of >2,000 virgin female NOW, and the glands were extracted in −250 microliters of pentane in composite batches of −250-300 glands per extract. […] The extracts were then concentrated to ˜10-20 microliters, and aliquots were analyzed on several GC columns with different polarity, by coupled GC-mass spectrometry, and by coupled GC-Fourier transform infrared spectrometry. […]

## CC/C=C\C=C/CCCCCCCCCC=O (single isomer, unassigned) [Compound 1, (Z,Z)-11,13-hexadecadienal]
[1]
  affinity to AtraPBP: apparent high affinity
[2]
  EAD activity of natural constituent: EAD-active
[2]; listed as (Z,Z)-1
  EAD activity of natural constituent: strongest EAD-active peak
[3]
  SSR response of olfactory receptor neurons: large spike amplitude cells (FIG. 1A) were activated
Navel orangeworm
  captures of male navel orangeworm in baited traps: captured no moths
NOW males; synthesized standards and crude extract
  male NOW response in wind tunnel: no test males responded

## CCCCCCCCCCCCCCCC(=O)OCC (single isomer, unassigned) [Compound 2, ethyl palmitate]
[2]
  EAD activity of natural constituent: EAD-active

## CC/C=C\C=C/CCCCCCCCCC(=O)OCC (single isomer, unassigned) [Compound 3, ethyl (Z,Z)-11,13-hexadecadienoate]
[2]
  EAD activity of natural constituent: EAD-active
  EAD activity of synthetic or authentic compound: EAD active

## CC/C=C\C=C/CCCCCCCCCCOC(C)=O (single isomer, unassigned) [Compound 4, (Z,Z)-11,13-hexadecadien-1-yl acetate]
[2]
  EAD activity of natural constituent: EAD-active
Meal moth
  catches of meal moth in traps baited with virgin female navel orangeworm plus added compound: completely shut off

## CC/C=C\C/C=C\C/C=C\C/C=C\C/C=C\CCCCCCC (single isomer, unassigned) [Compound 5, (Z,Z,Z,Z,Z)-3,6,9,12,15-tricosapentaene]
[2]
  EAD activity of natural constituent: EAD-active

## CC/C=C\C/C=C\C/C=C\C/C=C\C/C=C\CCCCCCCCC (single isomer, unassigned) [Compound 6, (Z,Z,Z,Z,Z)-3,6,9,12,15-pentacosapentaene]
[2]
  EAD activity of natural constituent: EAD-active

## CC/C=C/C=C/CCCCCCCCCC=O [(E,E)-1]
[3]
  SSR response of olfactory receptor neurons: activated mainly a small spike ORN, with small activation of a large spike cell

## CC/C=C\C=C\CCCCCCCCCC=O [(E,Z)-1, E,Z-11,13-hexadecadienal]
[2]
  EAD activity of natural constituent: small EAD-active peaks

## CC/C=C/C=C\CCCCCCCCCC=O [(Z,E)-1, Z,E-11,13-hexadecadienal]
[2]
  EAD activity of natural constituent: small EAD-active peaks

## CC/C=C\C=C/CCCCCCCCCCOC(C)=O [(Z,Z)-11,13-hexadecadien-1-yl acetate]
[2]
  EAD activity of synthetic or authentic compound: same electrophysiological activity as the natural product
Meal moth; partial mixtures
  effect of removing the compound from the full mixture on meal moth captures: increased dramatically captures of male meal moth
Meal moth
  catches of meal moth in traps baited with virgin female navel orangeworm plus added compound: complete lack of captures

## CC/C=C\C/C=C\C/C=C\C/C=C\C/C=C\CCCCCCC [(Z,Z,Z,Z,Z)-3,6,9,12,15-tricosapentaene]
[2]; NOW gland extract screened by GC-EAD
  share of NOW antennal preparations with detectable response: about half
[2]
  EAD activity of natural constituent: much weaker response
[4]
  EAD response of male meal moth antennae: consistently elicited responses from the male antennae

## CC/C=C\C=C/CCCCCCCCCCO [Z11,Z13-16:OH, Z,Z-11,13-hexadecadien-1-ol]
NOW males; wind tunnel
  effect of adding the compound to the blend of Z11,Z13-16:Ald with tricosapentaene: further enhanced attraction

## CCCCCCCCCCCCCCCC(=O)OCC [ethyl palmitate]
[2]
  EAD activity of synthetic or authentic compound: EAD activity
